Legend:
[1] = tested on: human skin fibroblast line ASF-2; assay: Cell attachment of human skin fibroblasts; assay type: cell-based; conditions: six hours of treatment, 40 to 500 μM
Description: A) Growth characteristics: • (1) Cell attachment frequency: to rule out immediate toxicity; • (2) Cell survival: to rule out delayed toxicity; • (3) Growth rates: to determine cell division stimulatory/inhibitory potential;
Experimental Procedures. A stock solution of 4 mM for 6-furfurylamino-8-aminopurine and 8 mM for other compounds were prepared by dissolving about […] per ml 1N HCl, followed by its appropriate dilution by the addition of Hank's buffer. The stock solution was filter sterilized, stored at 4° C., and was used for experiments by dilution it in the cell culture medium as required.
(§1) All cell culture experiments were performed on early and mid passage cultures (about 20 to 40% lifespan completed) of normal human skin fibroblast line, designated ASF-2. In order to check the effects of test compounds on senescent cells, late passage cells with more than 90% lifespan completed were used. ASF-2 cell line was established from a mammary skin biopsy obtained from a young, non-smoking and healthy […] at the time of breast reduction operation. Normal culture conditions of medium (DMEM) containing antibiotics, 10% foetal calf serum, and incubation at 37° C. with 95% humidity were used. The effects of the test compounds were determined using the following procedures.

[2] = tested on: senescent human skin fibroblasts; assay: Effects on senescent human skin fibroblasts (morphology, cell number); assay type: cell-based
Description: B) Cellular parameters: • (4) Cellular morphology: to evaluate cytoplasmic and nuclear stability; • (5) Cytoskeleton organization: to evaluate the stability of the cytoskeleton; • (6) Appearance of senescence-specific β-galactosidase: to rule out pro-aging effects; • (7) Lysosomal staining (Neutral red); • (8) JC-1 Staining of Mitochondria: for evaluation of mitochondrial function; • (9) Rejuvenation studies: for evaluation of reversion effect from aged phenotype to young phenotype; and
as §1

[3] = tested on: proteasome; assay: Proteasomal activity (chymotrypsin-like) in cell extracts; assay type: cell-based, human; conditions: 40 μM-200 μM
Description: as §1
Proteasomal activity. Chymotrypsin-like activity in cell extracts prepared from treated and untreated cells was determined by in vitro degradation of oligopeptides by the proteasome.

[4] = tested on: cytokinin-dependent tobacco callus; assay: Growth of cytokinin-dependent tobacco callus (plant cell division); assay type: cell-based, Nicotiana tabacum L. cv. Wisconsin 38; conditions: at concentration with highest activity; activity of kinetin set at 100%
Description: The effect on plant cell division. Cytokinin-dependent tobacco callus Nicotiana tabacum L. cv. Wisconsin 38 was maintained at 25° C. in darkness on modified MS medium, containing 4 μmol/l nicotinic acid, 2.4 μmol/l pyridoxine hydrochloride, 1.2 μmol/l thiamine, 26.6 μmol/l glycine, 1.37 μmol/l glutamine, 1.8 μmol/1 myo-inositol, 30 g/l of sucrose, 8 g/l of agar, 5.37 μmol/l NAA and 0.5 μmol/l BAP. Subcultivation was carried out every three weeks. Fourteen days before the bioassay, the callus tissue was transferred to the media without BAP. Biological activity was determined from the increase in fresh callus weight after four weeks of cultivation. Five replicates were prepared for each cytokinin concentration and the entire test was repeated twice. From the obtained data, the concentration with highest activity was selected for each compound tested. Relative activity at this concentration was calculated (see Table 4 below).
The cytokinins to be tested were dissolved in dimethylsulfoxide (DMSO) and the solution brought up to 10^−3M with distilled water.

[5] = tested on: SKH-1 hairless mice; assay: Hairless mouse assay: skin elasticity; assay type: in vivo; conditions: 3 weeks of topical treatment
Description: Evaluation of cutaneous effects of new topical compounds in the hirless mouse assay. The purpose of this study was to evaluate new topical compounds for their safety and efficacy as topical skin anti-aging treatments. The hairless mouse model is a well established model for studying the treatments of photoaging. This model has been used to study mechanisms, define effective treatment regimens and assess safety for retinoids and other anti-aging products. The present study was used to investigate a new class of anti-aging compounds in comparison to classical ones. Recent clinical studies have shown that this class of compounds improve the appearance of photodamaged skin and decrease transepidermal water loss (TEWL) without causing skin irritation. […] At baseline (prior to the 1st treatment), and weekly, the dorsal skin was measured for: transepidermal water loss (TEWL); skin moisture content; and skin elasticity. […]
Skin Moisture Content & Elasticity. […] This instrument is equipped with dual probes which are placed on the skin surface and a quantitative measurement taken of the respective parameters and the measurements recorded on an integrated computer. Mean measurements was determined for each treatment group over time, and comparative statistics used to evaluate product effectiveness. […]

[6] = tested on: mitochondria of ASF-2 cells; assay: JC-1 staining of mitochondria; assay type: cell-based, human; conditions: 3 days pre-treatment of dermal fibroblasts
Description: as §1
Briefly, stock solution of JC-1 (Sigma, M2128) was made at 1 mg/ml in dimethyl sulfoxide. Fresh staining solution […] was prepared by diluting the stock solution in warm (37° C.) culture medium supplemented with 10% calf serum (final conc. 1 μg/ml). Around 3000 cells/ml were seeded in 4 chambered flasks. After three days of incubation, medium is aspirated and one ml of JC-1 staining medium is added, after incubation for 10 mins a cover slip is quickly added and viewed under fluorescent microscope at excitation wavelengths of 488 and 647 nm. […] On depolarization, the orange red punctate staining is replaced by diffuse green monomer fluorescence.

Nc1nc2c(NCc3ccco3)ncnc2[nH]1 [Compound 82, 6-furfurylamino-8-aminopurine]
Percent of cells attached [1]: not affected to any significant extent
number of surviving senescent cells ([2]; 7 to 14 days): maintains the number of surviving senescent cells
appearance of senescent cells (intracellular debris) ([2]; 40 and 80 μM, vs controls): less intracellular debris
morphology of senescent cells ([2]; after 14 days of treatment): looking relatively younger
improvement in the proteasomal activity [3]: 5-10%
inhibition of chymotrypsin-like proteasomal activity ([3]; compared to untreated): no inhibition
Activity (%) [4]: 150.10%
skin elasticity [5]: better than controls tested
JC-1 staining [6]: punctate orange-red fluorescent staining
